The results in this text go back to ChEMBL document CHEMBL1141956, “New heterocyclic analogues of 4-(2-chloro-5-methoxyanilino)quinazolines as potent and selective c-Src kinase inhibitors” (Bioorg Med Chem Lett, 2005).

The structures appear in SMILES notation. ≈ marks a conversion by molar mass, not a printed value. Some results are limits rather than exact numbers.

Series [1] addresses Proto-oncogene tyrosine-protein kinase Src (Homo sapiens, UniProt P12931). The series is described as follows: Inhibitory activity against c-Src kinase.
A further series relates to A549. Briefly: Inhibition of A549 cell migration. Format: functional, cell-based. To be noted: Homo sapiens.
In series [2] the target is Vascular endothelial growth factor receptor 2 (Homo sapiens, UniProt P35968). Briefly: Inhibitory activity against KDR.
Vascular endothelial growth factor receptor 2, sequence (P35968 whole entry): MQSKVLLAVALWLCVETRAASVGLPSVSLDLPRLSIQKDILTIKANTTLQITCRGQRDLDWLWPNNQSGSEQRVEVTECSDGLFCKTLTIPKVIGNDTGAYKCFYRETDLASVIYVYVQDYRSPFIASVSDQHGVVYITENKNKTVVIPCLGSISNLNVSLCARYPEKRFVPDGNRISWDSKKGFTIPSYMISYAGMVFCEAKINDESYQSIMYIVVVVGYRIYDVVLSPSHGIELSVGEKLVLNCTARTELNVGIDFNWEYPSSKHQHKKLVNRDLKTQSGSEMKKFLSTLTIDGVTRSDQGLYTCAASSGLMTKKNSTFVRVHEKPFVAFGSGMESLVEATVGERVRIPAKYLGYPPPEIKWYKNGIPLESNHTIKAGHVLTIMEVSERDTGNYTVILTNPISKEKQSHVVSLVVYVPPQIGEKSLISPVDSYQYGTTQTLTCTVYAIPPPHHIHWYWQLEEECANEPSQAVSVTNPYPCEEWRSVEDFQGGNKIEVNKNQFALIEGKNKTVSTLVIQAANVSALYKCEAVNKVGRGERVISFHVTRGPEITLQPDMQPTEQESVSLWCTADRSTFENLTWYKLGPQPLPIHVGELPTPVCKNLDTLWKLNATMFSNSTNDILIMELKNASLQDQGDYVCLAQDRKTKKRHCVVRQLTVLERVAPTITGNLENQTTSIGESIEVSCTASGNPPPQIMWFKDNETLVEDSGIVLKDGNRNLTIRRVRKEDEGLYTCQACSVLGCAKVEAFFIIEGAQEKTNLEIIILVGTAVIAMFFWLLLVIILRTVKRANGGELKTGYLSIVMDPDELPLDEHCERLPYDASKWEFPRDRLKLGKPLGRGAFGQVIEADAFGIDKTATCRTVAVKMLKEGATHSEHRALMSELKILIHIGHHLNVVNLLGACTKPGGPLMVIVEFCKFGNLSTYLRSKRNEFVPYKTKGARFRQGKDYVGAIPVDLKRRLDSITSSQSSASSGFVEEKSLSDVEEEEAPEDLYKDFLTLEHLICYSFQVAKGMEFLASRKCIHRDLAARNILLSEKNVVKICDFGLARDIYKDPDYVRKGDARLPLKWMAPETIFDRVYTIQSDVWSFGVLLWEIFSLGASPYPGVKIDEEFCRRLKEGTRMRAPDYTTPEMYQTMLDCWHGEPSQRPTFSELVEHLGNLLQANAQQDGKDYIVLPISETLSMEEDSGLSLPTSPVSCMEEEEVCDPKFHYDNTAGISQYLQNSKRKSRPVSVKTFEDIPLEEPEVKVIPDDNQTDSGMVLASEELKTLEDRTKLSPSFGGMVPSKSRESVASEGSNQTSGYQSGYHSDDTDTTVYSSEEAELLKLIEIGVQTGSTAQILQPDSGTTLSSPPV
Series [3] can be described thus: Cmax in rat administered with 2 mg/kg, po. Format: ADME, organism-based. Set-up: dose 2 mg/kg, route oral. To be noted: in vivo.
For a further series, the system named is Rattus norvegicus. The series is described as follows: AUC(0-6 h) in rat administered with 2 mg/kg, po. To be noted: in vivo. The class given is ADME, organism-based, Plasma. Set-up: time < 6 hr, dose 2 mg/kg, route oral.
A short description of series [4]: Solubility in phosphate buffer at pH 7.4. The class given is physicochemical.
The nature of series [5]: Percent of unbound ligand in rat plasma. The class given is ADME, organism-based.

Proto-oncogene tyrosine-protein kinase Src, sequence (P12931 2-536 limits assumed): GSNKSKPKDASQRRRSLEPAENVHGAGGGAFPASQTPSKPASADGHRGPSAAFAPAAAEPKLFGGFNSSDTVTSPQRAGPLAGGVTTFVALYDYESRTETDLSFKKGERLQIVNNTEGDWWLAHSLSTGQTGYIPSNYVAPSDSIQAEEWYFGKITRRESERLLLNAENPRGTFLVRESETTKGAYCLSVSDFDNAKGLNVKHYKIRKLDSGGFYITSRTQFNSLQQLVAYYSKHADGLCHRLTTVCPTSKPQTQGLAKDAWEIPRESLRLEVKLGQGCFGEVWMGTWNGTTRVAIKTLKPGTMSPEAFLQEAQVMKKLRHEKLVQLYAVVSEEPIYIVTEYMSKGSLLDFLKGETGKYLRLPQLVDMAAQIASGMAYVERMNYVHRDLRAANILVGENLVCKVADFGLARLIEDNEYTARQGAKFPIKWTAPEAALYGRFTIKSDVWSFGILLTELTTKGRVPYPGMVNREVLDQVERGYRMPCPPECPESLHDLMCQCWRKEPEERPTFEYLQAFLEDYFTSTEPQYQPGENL

As to `COc1ccc(Cl)c(Nc2ncnc3cc(OCCN4CCOCC4)cc(OC(C)C)c23)n1`, the results for the IC50 (in series [1]; with A549; in series [2]) were 20 nM, 130 nM and 2900 nM, respectively.
Take `COc1cc(Nc2ncnc3cc(OCCCN4CCOCC4)cc(OC(C)C)c23)c(Cl)cn1`: the IC50 in series [1] was 35 nM; in series [2] it was below 2 nM.
As to `COc1cnc(Cl)c(Nc2ncnc3cc(OCCN4CCN(C(C)=O)CC4)cc(OC(C)C)c23)n1`, the IC50 in series [1] came to 8 nM; in the series with A549, 140 nM; in series [2] it was 2800 nM. In series [3], the highest level (Cmax) was 420 nM. Also, in the series with Rattus norvegicus, the AUC amounted to 0.61 uMh.
As for `COc1cnc(Cl)c(Nc2ncnc3cc(OCCCN4CCOCC4)cc(OC(C)C)c23)c1`, the IC50 was 5 nM in series [1] and 30 nM in series [2].
`COc1ccc(Cl)c(Nc2ncnc3cc(OCCCN4CCCC4)cc(OC(C)C)c23)n1`: the IC50 in series [1] came out at 6 nM; in the series on A549 it was 140 nM; in series [2] it was 900 nM.
In the same order, the values of `COc1ccc(Cl)c(Nc2ncnc3cc(OCCN4CCCC4)cc(OC(C)C)c23)n1` are 15 nM, 80 nM and 3600 nM.
Taken in the same sequence, the figures for `COc1ccc(Cl)c(Nc2ncnc3cc(OCCN4CCN(C)CC4)cc(OC(C)C)c23)n1` were 7 nM, 170 nM and 570 nM.
As to `COc1ccc(Cl)c(Nc2ncnc3cc(OCCCN4CCOCC4)cc(OC4CCOCC4)c23)n1`, the IC50 in series [1] was 5 nM; in the series with A549 it was 160 nM; in series [2], 5500 nM.
Taken in the same sequence, the figures for `COc1ccc(Cl)c(Nc2ncnc3cc(OCCCN4CCN(C(C)=O)CC4)cc(OC(C)C)c23)n1` were below 4 nM, 90 nM and 2700 nM.
Consider `COc1ccc(Cl)c(Nc2ncnc3cc(OCCCN4CCN(C)CC4)cc(OC(C)C)c23)n1`, for which the IC50 in series [1] was below 4 nM; with A549, 90 nM; in series [2], 680 nM.
Take `COc1ccc(Cl)c(Nc2ncnc3cc(OCCCN4CCOCC4)cc(OC(C)C)c23)c1`: the IC50 in series [1] stood at 40 nM; in series [2] it was 30 nM.
Turning to `COc1ncc(Cl)c(Nc2ncnc3cc(OCCN4CCN(C(C)=O)CC4)cc(OC(C)C)c23)n1`, the IC50 in series [1] turned out to be 15 nM; in the series with A549, 270 nM; in series [2], 15000 nM.
In the same order, the values of `COc1cnc(Cl)c(Nc2ncnc3cc(OCCCN4CCOCC4)cc(OC4CCOCC4)c23)c1` are 7 nM, 290 nM and 30 nM.
Consider `COc1ccc(Cl)c(Nc2ncnc3cc(OCCCN4CCOCC4)cc(OC4CCOCC4)c23)c1`, for which the figures for the IC50 in series [1] and in series [2] were 10 nM and 400 nM, respectively.
Take `COc1ccc(Cl)c(Nc2ncnc3cc(OCCCN4CCOCC4)cc(OC(C)C)c23)n1`: the IC50 is below 4 nM in series [1], 90 nM with A549 and 1900 nM in series [2].
On to `COc1cc(Nc2ncnc3cc(OCCCN4CCOCC4)cc(OC4CCOCC4)c23)c(Cl)cn1`, for which the IC50 in series [1] was 400 nM; in series [2], 80 nM.
Turning to `COc1ccc(Cl)c(Nc2ncnc3cc(OCCN4CCN(C(C)=O)CC4)cc(OC(C)C)c23)n1`, the half-maximal inhibitory concentration (IC50) in series [1] came to 10 nM; in the series on A549 it was 90 nM; in series [2] it was 6300 nM. Moreover, in series [4], the concentration in solution (solubility) came to 43 µM (≈ 22.1 µg/mL). The Cmax in series [3] is 310 nM. In addition, the fraction unbound in series [5] worked out at 0.08. In the series with Rattus norvegicus, the AUC was determined as 0.64 uMh.

What is called IC50 is the point on the concentration scale where inhibition reaches its midpoint. Read a high IC50 as a need for much substance. What is called Cmax is the peak of the concentration-time curve. The term solubility denotes the dissolved amount per volume that the medium holds. Read a low solubility as little dissolved substance. Broadly, the fraction unbound is free concentration divided by total concentration.
